Test results reported in patent publication EP4603105A1, “PHARMACEUTICAL COMPOSITION CONTAINING CYCLIC COMPOUND HAVING SELECTIVE KRAS INHIBITORY EFFECT AGAINST HRAS AND NRAS” (CHUGAI SEIYAKU KABUSHIKI KAISHA, priority 2022, dated 2024).

Tests used:
[1] = target: HRAS wild-type protein (Homo sapiens, UniProt P01112); test: Binding to HRAS by surface plasmon resonance (SPR), KD and KD ratio to KRAS; settings: ratio of KD for HRAS wild-type protein to KD for KRAS
Method in brief: (§1)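 GDP-loaded biotinylated Avi-tag RAS proteins (E. coli-expressed) captured on a Biotin CAPture chip at ~100–300 RU; single-cycle kinetics at 30°C, 100 µL/min, 75 s injections of rising compound concentrations. HBS pH 7.4 running buffer with 1 mM DTT, 10 mM MgCl2, 10 µM GDP, 4% DMSO. KD from 1:1 binding fit.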

[2] = target: GDP-bound NRAS wild-type protein (Homo sapiens, UniProt P01111); test: Binding to NRAS by surface plasmon resonance (SPR), KD and KD ratio to KRAS; settings: ratio of KD for GDP-bound NRAS wild-type protein to KD for KRAS
Sequence of GDP-bound NRAS wild-type protein (P01111 whole entry): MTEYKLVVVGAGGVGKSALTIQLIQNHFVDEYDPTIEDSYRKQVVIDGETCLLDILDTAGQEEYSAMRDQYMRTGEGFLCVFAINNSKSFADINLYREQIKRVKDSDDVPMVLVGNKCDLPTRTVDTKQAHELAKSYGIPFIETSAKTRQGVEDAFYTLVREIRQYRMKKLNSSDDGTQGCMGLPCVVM
Method in brief: as §1

[3] = system: human lung cancer strain NCI-H441; format: cell-based
Method in brief: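 Readout: […] after the ATP-based reagent. Compound: serial dilutions in dimethyl sulfoxide.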

Sequence of HRAS wild-type protein (P01112 whole entry): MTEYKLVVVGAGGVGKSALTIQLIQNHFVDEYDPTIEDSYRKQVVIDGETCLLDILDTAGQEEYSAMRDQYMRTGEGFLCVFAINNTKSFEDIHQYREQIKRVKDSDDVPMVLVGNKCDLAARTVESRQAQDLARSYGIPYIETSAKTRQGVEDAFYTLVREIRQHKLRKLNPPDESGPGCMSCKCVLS

| SMILES | IC50 [3] | HRAS /KRAS [1] | NRAS /KRAS [2] |
| --- | --- | --- | --- |
| CC[C@H](C)[C@@H]1NC(=O)[C@H](CC(C)C)N(C)C(=O)C[C@@H](C(=O)N(C)C)N(CCC2CCCC2)C(=O)[C@H](C2CCCC2)N(C)C(=O)C2(CCC2)NC(=O)[C@@H]2CC(F)(F)CN2C(=O)[C@H](CCc2ccc(C(F)(F)F)c(Cl)c2)NC(=O)CN(C)C(=O)[C@H](Cc2ccc(F)cc2)N2CCCCC[C@@H](C2=O)N(C)C(=O)CN(C)C1=O [PP0977] | 1120 nM | A (a compound having 10 or more and less than 20 is denoted as A) | B (a compound having 3 or more and less than 10 is denoted as B) |
| CCO[C@@H]1C[C@H]2C(=O)NC3(CCC3)C(=O)N(C)[C@@H](C3CCCC3)C(=O)N(CCC3CCCC3)[C@H](C(=O)N3CCOCC3)CC(=O)N(C)[C@@H](CC)C(=O)N[C@@H]([C@@H](C)CC)C(=O)N(C)CC(=O)N(C)[C@H]3C/C=C\CCN(C3=O)[C@@H](Cc3ccc(C(F)(F)F)cc3)C(=O)N(C)CC(=O)N[C@@H](CCc3cc(F)c(C(F)(F)F)c(F)c3)C(=O)N2C1 [PP0981] | 797 nM | A (a compound having 10 or more and less than 20 is denoted as A) | AA (a compound having 20 or more is denoted as AA) |
| CCO[C@@H]1C[C@H]2C(=O)NC3(CCC3)C(=O)N(C)[C@@H](C3CCCC3)C(=O)N(CCC3CCCC3)[C@H](C(=O)N(C)C)CC(=O)N(C)[C@@H](CC)C(=O)N[C@@H]([C@@H](C)CC)C(=O)N(C)CC(=O)N(C)[C@H]3C/C=C\CCN(C3=O)[C@@H](Cc3ccc(C(F)(F)F)cc3)C(=O)N(C)CC(=O)N[C@@H](CCc3cc(F)c(C(F)(F)F)c(F)c3)C(=O)N2C1 [PP0982] | 372 nM | A (a compound having 10 or more and less than 20 is denoted as A) | AA (a compound having 20 or more is denoted as AA) |

These reach a lower IC50 [3]. Values come first.

| IC50 [3] | SMILES | HRAS /KRAS [1] | NRAS /KRAS [2] |
| --- | --- | --- | --- |
| 22.7 nM | CCO[C@@H]1C[C@H]2C(=O)NC3(CCC3)C(=O)N(C)[C@@H](C3CCCC3)C(=O)N(C)[C@H](C(=O)N(C)C)CC(=O)N(C)[C@@H](CC)C(=O)N[C@@H]([C@@H](C)CC)C(=O)N(C)CC(=O)N(C)[C@H]3C/C=C\CCN(C3=O)[C@@H](Cc3ccc(C(F)(F)F)cc3)C(=O)N(C)CC(=O)N[C@@H](CCc3ccc(C(F)(F)F)c(Cl)c3)C(=O)N2C1 [PP0978] | B (a compound having 3 or more and less than 10 is denoted as B) | A (a compound having 10 or more and less than 20 is denoted as A) |
| 223 nM | CCO[C@@H]1C[C@H]2C(=O)NC3(CCC3)C(=O)N(C)[C@@H](C3CCCC3)C(=O)N(CC)[C@H](C(=O)N(C)C)CC(=O)N(C)[C@@H](CC)C(=O)N[C@@H]([C@@H](C)CC)C(=O)N(C)CC(=O)N(C)[C@H]3C/C=C\CCN(C3=O)[C@@H](Cc3ccc(C(F)(F)F)cc3)C(=O)N(C)CC(=O)N[C@@H](CCc3cc(F)c(C(F)(F)F)c(F)c3)C(=O)N2C1 [PP0980] | B (a compound having 3 or more and less than 10 is denoted as B) | A (a compound having 10 or more and less than 20 is denoted as A) |
| 19.5 nM | CCO[C@@H]1C[C@H]2C(=O)NC3(CCC3)C(=O)N(C)[C@@H](C3CCCC3)C(=O)N(C)[C@H](C(=O)N(C)C)CC(=O)N(C)[C@@H](CC)C(=O)N[C@@H]([C@@H](C)CC)C(=O)NCC(=O)N(C)[C@H]3C/C=C\CCN(C3=O)[C@@H](Cc3ccc(C(F)(F)F)cc3)C(=O)N(C)CC(=O)N[C@@H](CCc3cc(F)c(C(F)(F)F)c(F)c3)C(=O)N2C1 [PP0983] | A (a compound having 10 or more and less than 20 is denoted as A) | A (a compound having 10 or more and less than 20 is denoted as A) |
